Data reported in PubChem BioAssay AID179 (DTP/NCI, 2004).
Activity calls are given as the source filed them.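 The calls were made as follows: active = compounds giving half or more protection of infected cells from virus-caused growth loss, again on retest; inactive = the rest.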

Tested on: CEM cells HIV-1 protection, formazan growth assay
Experiment: NCI AIDS Antiviral Assay
Conditions: for IC50: measured here: growth of uninfected CEM cells
Procedure, shortened: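 Protection of CEM cells against HIV-1 was scored from cell growth (soluble formazan) across five concentrations, with parallel uninfected cells. Lack of protection may reflect toxicity.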

Compound	EC50 [µM]	IC50 [µM]	outcome
C/C(=N\NC(=O)c1ccncc1)c1ccc(F)cc1	> 363	> 363	–
CC1(C)Oc2ccc3ccc(=O)oc3c2C(O)C1O (stereo unspecified)	> 200	115	–
N#Cc1c2c(c(N=[N+]=[N-])n3c1nc1ccccc13)CCCC2	> 4.68	> 4.68	–
O=C1/C(=C/c2cc3c(=O)c4ccccc4sc3s2)NC(=S)N1c1ccccc1	> 200	> 200	–
CSc1nc2c(c(=O)[nH]1)N=C(c1ccc([N+](=O)[O-])cc1)CC(c1ccccc1)N2 (stereo unspecified)	–	–	inactive
COCN1C(=O)[C@@H]2CCCN2C(=O)c2cc(N)ccc21	> 200	> 200	–
COC(=O)C1=C(c2ccccc2)ON2C(C)(C)COC12C (stereo unspecified)	> 200	> 200	–
Cc1ccc(C(=O)Nc2ccc(S(=O)(=O)O)c3cc(S(=O)(=O)O)cc(S(=O)(=O)O)c23)cc1N	> 200	> 200	–
C[C@H]1OC(=O)[C@@H]2N=NN(Cc3ccccc3)[C@H]12	–	–	inactive
CC(C(=O)COCc1ccccc1)P1(=O)OC(C)(C)CN1C(C)(C)C (stereo unspecified)	> 200	132	–
COC(=O)C1(CC(=O)OC(C)(C)C)NCCc2c1[nH]c1ccccc21 (stereo unspecified)	> 115	95.5	–
Nc1nc(N)nc(-c2ccccc2-c2nc(N)nc(N)n2)n1	> 200	> 200	–
CC(C)=CC(=O)N1CCN(C(=O)C=C(C)C)CC1	> 501	> 501	–
CC(C)(C)C(=O)/C=C/c1cccc(F)c1	–	–	inactive
CC(=O)Nc1ccc(C(O)/C(=N/N)c2nc3ccc(Cl)cc3[nH]c2=O)cc1 (stereo unspecified)	> 162	> 162	–
FC(F)(Sc1ncccn1)c1nc2ccccc2o1	19.5	102	–
C=C[C@H](C)[C@H](O)c1c(O)c2c(c3c(CCC)cc(=O)oc13)OC(C)(C)C=C2	> 200	49	–
CN(C)CCn1c(=O)oc2cc(C(=O)CN3CCOCC3)ccc21	> 200	102	–
c1ccc2c(c1)nnn2CN1CCOCC1	–	–	inactive
Nc1ccc(S(=O)(=O)c2ccc(N)cc2)cc1	–	–	inactive
COc1ccc2[nH]c3c(c2c1)C(=O)c1ccncc1C3=O	> 20	1.2	–

Compound	EC50 [µM]	IC50 [µM]	outcome
COC(=O)CC1(C(=O)OC)C2CCCN2C2(C#N)c3ccccc3CCC12Br (stereo unspecified)	> 41.7	> 41.7	–
CC(C)(C)[Si](C)(C)OCC1OC(n2ccc(=O)[nH]c2=O)C(O[Si](C)(C)C(C)(C)C)[C@]12N[C@H](C(N)=O)CS2 (stereo partly specified)	> 200	5.25	–
C=CCC1(C(=O)OC(C)(C)C)C(OC)=C(C(=O)OC(C)(C)C)C2C1C(C(=O)OC(C)(C)C)=C(OC)C2(CC=C)C(=O)OC(C)(C)C (stereo unspecified)	–	–	inactive
Nc1nc(NCC2(CO)CCC2)cc(=O)[nH]1	> 200	> 200	–
COc1ccc(C2S/C(=C\c3ccccc3O)C(=O)N2NC(=O)Cc2ccccc2)cc1 (stereo unspecified)	> 57.5	> 57.5	–
N#CCCCCCOCCOCCOCCOCCOCCCCCC#N	–	–	inactive
O=C(NCCCN1CCN(CCCNC(=O)c2ccc(N=Nc3ccccc3)cc2)CC1)c1ccc(N=Nc2ccccc2)cc1	> 100	53.7	–
CCOc1ccc(N=C2NC(=O)C(CC(=O)Nc3ccc(Cl)cc3Cl)S2)cc1 (stereo unspecified)	> 214	> 214	–
Cn1c(=O)[nH]c2c([nH]c(=O)c(=O)n2C)c1=O	> 200	> 200	–
O=C(CC1Sc2ccccc2NC1=O)Nc1ccc(Cl)cc1 (stereo unspecified)	> 107	> 107	–
C1=CC2CCC1C1CN(CCCN3CCOCC3)CC21 (stereo unspecified)	> 708	> 708	–
O=S1(=O)c2ccc(cc2)N=CC=Nc2ccc1cc2	> 33.1	> 33.1	–
CCOC(=O)c1c(C)c(N=O)c2ccccn12	> 200	5.62	–
COC(=O)C[C@@H]1C(C)(C)[C@@H]2O[C@@]34C[C@@H]2C(=O)[C@]1(C)[C@H]3CC[C@@]1(C)[C@H](c2ccoc2)OC(=O)C[C@]14O	> 200	120	–
NC(=O)CNC(=O)CCCCC1CCSS1 (stereo unspecified)	51.3	> 200	–
C/C(N)=C/C(=O)c1[nH]c(C(=O)O)cc1C1CCN(Cc2ccccc2)C1=O (stereo unspecified)	> 200	31.6	–
Cc1cnc2c(c1)CCCC2C(N)=S (stereo unspecified)	–	–	inactive
C=C(C=O)[C@@H]1C2OC(=O)C(=C)[C@@H]2CC(O)[C@@]1(C)CC (stereo partly specified)	> 151	5.89	–
CC(C)(C)C1CCC2c3c([nH]c4ncccc34)C3C(=O)N(c4ccccc4)C(=O)C3C2C1 (stereo unspecified)	> 1.78	> 1.78	–
CCOC(=O)C1S(=O)(=O)OCCOS1(=O)=O	> 5750	3470	–
O=[N+]([O-])c1ccc(CCc2ccc([N+](=O)[O-])cc2S(=O)(=O)O)c(S(=O)(=O)O)c1	–	–	inactive

Compound	EC50 [µM]	IC50 [µM]	outcome
CCOC(=O)CC(=O)Nc1cccc2[nH]cnc12	> 200	> 200	–
c1cc(CCSSCCc2ccncc2)ccn1	> 200	3.8	–
C/C1=C\[C@H](C)C[C@H](C)OC(=O)C[C@H](c2ccc(O)cc2)NC(=O)[C@@H](Cc2c(Br)[nH]c3ccccc23)N(C)C(=O)[C@H](C)NC(=O)[C@@H](C)C1	> 2	0.0302	–
C[C@H](CSC(=O)c1ccccc1)C(=O)N1c2ccccc2C[C@H]1C(=O)O	> 200	107	–
COc1ccc2c(c1)c(=O)c1ccccc1n2/C=C/C(=O)O	> 617	105	–
O=c1cc(C(F)(F)F)c2cc3c(cc2o1)NCCC3	> 9.77	> 9.77	–
CCOC(=O)NNC(=O)NCc1cccc(CNC(=O)NNC(=O)OCC)c1	> 200	> 200	–
O=C(/C=C/c1ccccc1)/C=C/c1ccccc1O	> 145	61.7	–
O=[N+]([O-])c1c(Cl)cccc1-c1c[nH]cc1Cl	> 263	61.7	–
COC(=O)C(=O)CC(=O)CCn1[nH]c(=O)c(Cl)c(Cl)c1=O	> 389	295	–
COC(=O)c1ccc(N/C=C(/C#N)c2ccsc2)cc1	> 47.9	> 47.9	–
CCc1cccc(C)c1NC(=O)C(=O)Cc1nc2ccccc2o1	> 22.4	> 22.4	–
O=C(Cc1nc2ccc([N+](=O)[O-])cc2[nH]c1=O)C(=O)Nc1cc(Cl)c(Cl)cc1Cl	> 29.5	11.2	–
CC(C)(C)[Si](C)(C)OCC1OC(n2ccc(=O)[nH]c2=O)C(O[Si](C)(C)C(C)(C)C)/C1=C/CO (stereo unspecified)	> 200	8.32	–
C=CCOc1ccc(Sc2c(O)cc(-c3ccccc3)oc2=O)c(C(C)(C)C)c1	> 200	31.6	–
O=c1c2ccc(Cl)cc2oc2c(CNc3ccc(S(=O)(=O)Nc4nccs4)cc3)cccc12	> 151	> 151	–
O=C([CH-]C(=O)c1ccccc1)c1ccccc1.[CH-]1CCCCC1.[CH-]1CCCCC1.[CH-]1CCCCC1.[Sn+4]	> 60.3	–	–
O=C1CSC(c2ccc([N+](=O)[O-])cc2)N1c1nc(-c2ccc3c(c2)CCCC3)cs1 (stereo unspecified)	155	263	–
Cn1c(O)c(N=NC(=O)Cc2c[nH]c3ccccc23)c2ccccc21	> 200	> 200	–
N#C/C(=C\c1ccccc1)c1cccc(Br)c1	> 200	> 200	–
CC(C)CC1=CC(=O)CN(CCc2c[nH]c3ccccc23)C1	> 240	126	–
